# Laboratory results: PubChem BioAssay (NCI)
#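 96-well plates; 48 h exposure; 5 concentrations. Endpoints by linear interpolation between flanking doses. Not reached: highest tested concentration assigned. Abbreviation: GI50, concentration required for 50% inhibition of growth. Definition used: TGI = concentration required for complete inhibition of growth.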
# Key:
# Experiment in all cases: NCI anticancer screen, dose series, 48 h
# [1] = tested on: OVCAR-5 ovarian
# [2] = tested on: 786-0 renal
# [3] = tested on: RXF 393 renal
# [4] = tested on: IGROV1 ovarian
# [5] = tested on: SK-MEL-5 melanoma
# [6] = tested on: HOP-62 NSCLC
# [7] = tested on: SF-268 CNS
# [8] = tested on: COLO 205 colon
# [9] = tested on: CCRF-CEM leukemia
Structure (SMILES),GI50 [1],TGI [1],GI50 [2],TGI [2],GI50 [3],TGI [3],GI50 [4],TGI [4],GI50 [5],TGI [5],GI50 [6],TGI [6],GI50 [7],TGI [7],GI50 [8],TGI [8],GI50 [9],TGI [9]
C=C1C(=O)O[C@H]2[C@H]1CC/C(COC(=O)NCC(C)c1ccc(CC(C)C)cc1)=C\CC[C@@]1(C)O[C@@H]21 (stereo partly specified),3.56 µM,7.73 µM,0.582 µM,1.1 µM,0.559 µM,1.17 µM,0.551 µM,1.18 µM,3.97 µM,8.07 µM,5.29 µM,10.5 µM,1.82 µM,6.59 µM,1.3 µM,5.3 µM,0.644 µM,3.61 µM
CC(C)CCC1(CCN)C(=O)NC(=O)NC1=O,–,> 100 µM,–,> 100 µM,–,> 100 µM,–,> 100 µM,–,> 100 µM,–,> 100 µM,–,> 100 µM,–,> 100 µM,–,48.3 µM
COc1ccc2c(c1)/C(=C/c1cc(OC)c(OC)c(OC)c1)C(=O)N2,1.9 µM,> 100 µM,0.236 µM,> 94.3 µM,0.187 µM,0.587 µM,0.268 µM,> 53.8 µM,0.155 µM,–,0.137 µM,> 47.5 µM,0.419 µM,> 100 µM,0.517 µM,3.03 µM,0.253 µM,–
O=C(O)c1ccccc1/C=N/N=C1c2ccccc2-c2ccccc21,–,> 100 µM,–,> 100 µM,–,75.8 µM,–,> 100 µM,–,> 100 µM,–,> 100 µM,–,77.1 µM,–,> 100 µM,–,78.7 µM
C=C1C[C@@H]2CC[C@@]34C[C@H]5O[C@H]6[C@@H](O3)[C@H]3O[C@H](CC[C@@H]3O[C@H]6[C@@H]5O4)CC(=O)C[C@@H]3[C@@H](OC)[C@@H](C[C@H](O)CN)O[C@H]3C[C@H]3O[C@@H](CC[C@@H]1O2)C[C@@H](C)C3=C,< 0.01 µM,> 100 µM,0.0761 µM,> 100 µM,< 0.01 µM,> 100 µM,< 0.01 µM,> 100 µM,< 0.0135 µM,1.11 µM,< 0.0115 µM,> 100 µM,0.304 µM,> 100 µM,< 0.01 µM,0.0652 µM,< 0.01 µM,> 100 µM
O=c1c(F)cn(Cc2ccccc2CCl)c(=O)n1Cc1ccccc1CCl,5.07 µM,11 µM,2.09 µM,4.44 µM,–,–,1.33 µM,2.99 µM,1.65 µM,3.44 µM,2.35 µM,4.84 µM,2.04 µM,4.81 µM,1.7 µM,3.52 µM,1.04 µM,3.5 µM
CC(NC(=O)N(C)C)NC(=O)N(C)C,–,–,–,> 10 µM,–,> 10 µM,–,> 10 µM,–,> 10 µM,–,> 10 µM,–,> 10 µM,–,> 10 µM,–,> 10 µM
CCOC(=O)C1SC(=Nc2ccc(Cl)cc2)N=C1C (stereo unspecified),–,39.3 µM,–,30.7 µM,–,36.3 µM,–,40 µM,–,–,–,36.2 µM,–,34 µM,–,32.8 µM,–,–
CCNC(=O)c1noc(-c2cc(C(C)C)c(O)cc2O)c1-c1ccc(CN2CCOCC2)cc1,0.0631 µM,29.3 µM,1.98 µM,31.5 µM,0.0257 µM,17.8 µM,< 0.0224 µM,> 100 µM,0.047 µM,14.2 µM,0.0532 µM,29.4 µM,2.44 µM,34.9 µM,0.0787 µM,5.64 µM,0.0321 µM,> 75.4 µM
CC(=O)O[C@H]1CCc2c(cc(N)c3c2C(=O)C[C@]2(C)C([C@H](C)CCCC(C)C)CCC32C)C1(C)C (stereo partly specified),–,> 100 µM,–,> 100 µM,–,> 100 µM,–,> 100 µM,–,> 100 µM,–,> 100 µM,–,> 100 µM,–,> 100 µM,–,> 100 µM
CN(C)C(=O)O[C@H]1CN[C@H](C#Cc2cc3ncnc(Nc4ccc(OCc5cccc(F)c5)c(Cl)c4)c3s2)C1,> 25 µM,> 25 µM,5.8 µM,15 µM,5.48 µM,> 25 µM,4.61 µM,> 25 µM,16 µM,> 25 µM,> 23.4 µM,> 25 µM,5.41 µM,> 25 µM,> 18.6 µM,> 25 µM,3.17 µM,> 25 µM
COc1cnc2c(c1)C(=O)c1c-2n(CCCN2CCN(C)CC2)c(=O)c2cc([N+](=O)[O-])ccc12,22.1 µM,46.5 µM,1.64 µM,3.13 µM,11.4 µM,30.4 µM,0.351 µM,2.26 µM,1.31 µM,2.64 µM,0.0813 µM,0.392 µM,0.206 µM,1.64 µM,1.64 µM,3.38 µM,0.0683 µM,0.834 µM
O=c1oc2ccc(I)cc2c(=O)n1-c1ccc(Cl)cc1F,3.96 µM,74.1 µM,3.14 µM,10.5 µM,1.44 µM,5.32 µM,1.19 µM,21.1 µM,0.751 µM,2.19 µM,2 µM,7.42 µM,1.51 µM,16.7 µM,4.96 µM,19.9 µM,2.97 µM,46.6 µM
O=C(Nc1ccc(Cl)c(Cl)c1)NS(=O)(=O)c1cnccc1Oc1ccc(F)cc1,6.28 µM,95.2 µM,4.51 µM,70.9 µM,3.8 µM,> 100 µM,2.69 µM,8.59 µM,3.63 µM,13.5 µM,6.14 µM,51.2 µM,4.48 µM,> 100 µM,2.97 µM,7.59 µM,2.47 µM,7.55 µM
COC(=O)C1(O)CC(=O)CCC1c1ccc(OC)cc1 (stereo unspecified),–,> 100 µM,–,> 100 µM,–,–,–,> 100 µM,–,> 100 µM,–,> 100 µM,–,> 100 µM,–,> 100 µM,–,> 100 µM
CC(=O)/C(=C/c1ccccc1F)C(=O)c1ccccc1,–,> 100 µM,–,> 100 µM,–,46 µM,–,> 100 µM,–,> 100 µM,–,> 100 µM,–,> 100 µM,–,> 100 µM,–,–
